Assay [1] relates to cultured hippocampal neurons. In kind it is cell-based, rat. As to conditions: for mEPSC amplitude 30 min after treatment: glycine 200 μM 3 min, choline 1 mM, AP5 100 μM.
Experimental: Primary cultures from hippocampus were prepared from fetal Wistar rats (embryonic day 17-19) on Cell+ (Sarstedt) culture dishes as previously described in (10). The cultures were used for experiments on 12-15 d after plating.
Miniature excitatory postsynaptic currents (mEPSCs) were recorded from cultured hippocampal neurons 2 to 4 weeks days after plating under whole-cell patch clamp configuration (11). Electrodes (3-5 MΩ) were pulled from high lead pipettes (Corning 8161, Warner Instruments). Cells were voltage clamped at −70 mV. Access resistance is below 10 MΩ, recordings with access resistance varying more than 10% were rejected from analysis.
To determine whether activation of α7-nAchR is physiologically relevant in regulating synaptic strength, we examined the ability of α7-nAchR activation to modulate miniature excitatory postsynaptic currents (mEPSCs) during LTP in primary cultures of hippocampal neurons. mEPSCs in hippocampal neurons were recorded under whole-cell configuration. […] The cells were held at −70 mV to avoid potential interference by voltage-gated Ca^++ channels (12,13).
For assay [2], the system named is NMDA receptor. In kind it is cell-based, rat.
Assay [3] concerns CREB. It counts as cell-based, rat.
Text: To confirm that α7 nAChR is responsible for the observed activation of CREB, we measured CREB activity in HEK-293 cells expressing α7 nAChR.
The target of assay [4] is α7-nAchR-NR2A interaction (Rattus norvegicus, UniProt Q00959+Q05941). It counts as cell-based. How it is done: To examine the effect of α7-nAchR activation on the interaction between α7-nAchR and NMDA receptors, we examined the ability of antibody against NR2A subunit to co-precipitate with the α7-nAchR in hippocampal primary culture treated with 1 mM choline or choline/NMDA (50 μM).
Chain of α7-nAchR-NR2A interaction (Q05941 23-502, other chains not shown): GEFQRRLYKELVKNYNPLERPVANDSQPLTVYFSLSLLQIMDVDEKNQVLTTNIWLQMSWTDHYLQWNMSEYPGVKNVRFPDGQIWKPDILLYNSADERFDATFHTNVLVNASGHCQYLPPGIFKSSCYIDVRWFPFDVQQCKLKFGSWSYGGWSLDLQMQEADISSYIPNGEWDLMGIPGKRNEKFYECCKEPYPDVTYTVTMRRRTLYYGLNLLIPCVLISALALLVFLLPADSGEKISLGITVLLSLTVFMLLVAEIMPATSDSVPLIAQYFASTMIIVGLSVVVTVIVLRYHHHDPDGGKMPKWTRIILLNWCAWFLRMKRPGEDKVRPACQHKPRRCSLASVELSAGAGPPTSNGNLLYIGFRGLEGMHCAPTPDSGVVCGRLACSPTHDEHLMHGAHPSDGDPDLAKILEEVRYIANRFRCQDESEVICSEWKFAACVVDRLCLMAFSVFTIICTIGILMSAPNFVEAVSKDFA
Chain of α7-nAchR-NR2A interaction (Q00959 20-1464, other chains not shown): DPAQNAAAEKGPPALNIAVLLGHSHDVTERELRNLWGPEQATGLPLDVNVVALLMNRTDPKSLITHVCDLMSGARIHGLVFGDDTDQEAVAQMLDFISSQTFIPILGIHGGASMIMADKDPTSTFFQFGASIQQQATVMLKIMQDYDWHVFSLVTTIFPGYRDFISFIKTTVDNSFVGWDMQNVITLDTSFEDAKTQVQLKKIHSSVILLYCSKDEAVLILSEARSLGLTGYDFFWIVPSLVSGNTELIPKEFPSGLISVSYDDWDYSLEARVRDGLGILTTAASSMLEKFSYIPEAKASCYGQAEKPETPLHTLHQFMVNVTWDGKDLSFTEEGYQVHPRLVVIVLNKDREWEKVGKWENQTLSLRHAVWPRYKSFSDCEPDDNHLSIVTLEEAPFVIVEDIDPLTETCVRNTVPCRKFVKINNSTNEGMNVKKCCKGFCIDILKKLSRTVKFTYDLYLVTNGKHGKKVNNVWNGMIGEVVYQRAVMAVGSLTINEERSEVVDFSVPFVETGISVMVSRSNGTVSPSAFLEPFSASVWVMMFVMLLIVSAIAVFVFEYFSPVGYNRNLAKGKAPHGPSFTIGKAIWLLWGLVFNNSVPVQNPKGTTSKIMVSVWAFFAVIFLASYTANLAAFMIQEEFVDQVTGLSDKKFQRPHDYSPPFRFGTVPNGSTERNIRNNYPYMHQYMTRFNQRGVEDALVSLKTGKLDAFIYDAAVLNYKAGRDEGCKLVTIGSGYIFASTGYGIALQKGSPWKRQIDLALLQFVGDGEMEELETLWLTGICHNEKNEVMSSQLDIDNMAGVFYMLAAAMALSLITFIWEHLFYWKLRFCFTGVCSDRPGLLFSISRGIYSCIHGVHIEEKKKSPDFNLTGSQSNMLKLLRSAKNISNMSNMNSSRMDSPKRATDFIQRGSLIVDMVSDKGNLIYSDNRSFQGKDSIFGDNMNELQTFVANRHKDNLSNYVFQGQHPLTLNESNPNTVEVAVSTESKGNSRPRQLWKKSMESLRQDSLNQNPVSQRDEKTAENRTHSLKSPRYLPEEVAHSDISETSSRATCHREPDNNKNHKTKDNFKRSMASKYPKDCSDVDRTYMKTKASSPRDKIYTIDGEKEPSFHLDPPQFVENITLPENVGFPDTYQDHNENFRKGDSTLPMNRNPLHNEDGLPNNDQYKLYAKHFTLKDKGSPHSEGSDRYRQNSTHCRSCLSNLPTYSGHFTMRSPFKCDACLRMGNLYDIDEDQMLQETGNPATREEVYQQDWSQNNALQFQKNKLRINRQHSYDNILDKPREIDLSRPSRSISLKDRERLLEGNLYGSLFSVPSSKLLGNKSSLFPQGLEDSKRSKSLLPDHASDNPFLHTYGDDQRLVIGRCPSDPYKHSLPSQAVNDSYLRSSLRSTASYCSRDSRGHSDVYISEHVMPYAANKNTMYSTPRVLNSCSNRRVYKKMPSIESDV

Assay [5] deals with α7 nAChR: NR2A complex. To be noted: in vivo, 6 mg/kg/day. How it is done:
Thus, we pretreated rats with either nicotine or saline for 7 days subdermally (osmotic mini-pump, 6 mg/kg/day), and the expression of NR2A and α7 nAChR was examined in Western blot analysis.

From patent publication US20110097324A1, “COMPOSITIONS AND METHODS FOR MODULATING NICOTINIC/NMDA RECEPTOR FUNCTION” (CENTRE FOR ADDICTION AND MENTAL HEALTH, priority 2008, published 2011) come the findings set out here.

For `NC(CCCP(=O)(O)O)C(=O)O` (stereo not drawn) [AP5], in assay [1], the “effect on amplitude of mEPSCs” value was “can be abolished”.

Turning to `C[C@]12N[C@H](Cc3ccccc31)c1ccccc12` [MK-801], the “block of enhancement of whole cell current induced by co-application of choline with NMDA” value in assay [2] is given as “can be blocked”.

As to `CCN1C[C@]2(COC(=O)c3ccccc3N3C(=O)C[C@H](C)C3=O)CC[C@H](OC)[C@@]34[C@@H]5C[C@H]6[C@H](OC)[C@@H]5[C@](O)(C[C@@H]6OC)[C@](O)([C@@H](OC)[C@H]23)[C@@H]14` [MLA], the “block of nicotine-enhanced CREB activity” value in assay [3] was “can be blocked”.

For `CN[C@H](CC(=O)O)C(=O)O` [NMDA, N-methyl-D-aspartate], the “α7-nAchR-NR2A interaction after treatment” value in assay [4] was “no significant effect”.

As to `C[N+](C)(C)CCO` [choline], the “mEPSC amplitude 30 min after treatment” value in assay [1] is on record as 31.4+/−2.7 pA.

On to `NCC(=O)O` [glycine], for which the “mEPSC amplitude 30 min after treatment” value in assay [1] is on record as 26.5+/−2.3 pA.

Take `CN1CCCC1c1cccnc1` (stereo not drawn) [nicotine]: in assay [5], the “expression of NR2A or α7 nAChR in rat hippocampus” value was “no significant difference” and the “α7 nAChR: NR2A complex formation in rat hippocampus” value is “significantly enhanced”.

Turning to α-bungarotoxin, the “block of enhancement of whole cell current induced by co-application of choline with NMDA” value in assay [2] was “can abolish the choline induced upregulation of NMDA-mediated current”.
